For assay [1], the target named is Human recombinant PARP2 (Homo sapiens, UniProt Q9UGN5). Description: RBC HotSpot PARP2 radioisotope-based filter binding assay. The format is biochemical. On the procedure: (§1) The following methods are for evaluating the in vitro biology properties of the test articles. • a. RBC HotSpot Poly(ADP-ribose) Polymerases 1 (PARP1) and Poly(ADP-ribose) Polymerases 2 (PARP2) Assays: The assay principle is radioisotope-based filter binding assay where incorporation of radioisotope-labeled NAD^+ into the substrate captured on filter is detected after washout free NAD^+. Data were analyzed using Excel and GraphPad Prism software for IC50 curve fits. Each assay was conducted with PJ34 as a positive control. • i. PARP1 assay: Human recombinant PARP1 at a final concentration of 2.5 nM was combined with histone H4 (20 μM) and test articles at various concentrations in reaction buffer (50 mM Tris-HCL, pH 8.0, 50 mM NaCl, 10 mM MgCl2, 1 mM DTT, 1% DMSO, and 20 μg/mL activated DNA). The solution was inoculated for 20 min at room temperature and the reaction initiated by adding [adenylate-^32P]-Nicotinamide Adenine Dinucleotide, ^32P-NAD^+ at a final concentration of 10 μM. After incubation for 2 hour at room temperature, the reaction mixture was filtered and washed with 0.75% phosphoric acid for radioactivity detection. • ii. PARP2 assay: Human recombinant PARP2 at a final concentration of 2.5 nM was combined with histone H3 (20 μM) and test articles at various concentrations in reaction buffer (50 mM Tris-HCL, pH 8.0, 50 mM NaCl, 10 mM MgCl2, 1 mM DTT, 1% DMSO, and 20 μg/mL activated DNA). The solution was inoculated for 20 min at room temperature and the reaction was initiated by adding [adenylate-^32P]-Nicotinamide Adenine Dinucleotide, ^32P-NAD^+ at a final concentration of 10 μM. After incubation for 2 hour at room temperature, the reaction mixture was filtered and washed with 0.75% phosphoric acid for radioactivity detection. • b. AR binding assay: AR in LNCaP cytosol was used for determining the binding affinity of test articles and the reference compound—progesterone (Sigma, Cat: E2785, St. Louis, MO). IC50s were determined using 8 concentrations/compound. Cytosol was plated at 200 μg/well (100 μL) into a 96-well conical polypropylene plate (Agilent, Cat: 5042-1385, Santa Clara, CA) and mixed with 3 μL of test compound. After adding 100 μL of ^3H-methyltrienolone (PerkinElmer, Cat: NET590250UC, San Jose, CA), the plate was sealed and shaken at 300 rpm at 4° C. for 24 hours. Post incubation, 100 μL of radioligand adsorption buffer containing 10 mM Tris-HCl, pH 7.4; 1.5 mM EDTA; 1 mM DTT; 0.25% charcoal; 0.0025% dextran was added to individual well. Plate was shaken for 15 min at 4′C followed by centrifugation at 3000 rpm for 30 min at 4° C. 150 μL of supernatant was transferred into scint-tube (PerkinElmer, Cat: 6000192) and mixed with 2 mL of Ultima Gold Cocktail (PerkinElmer, Cat: 6013329). Radioactivity was counted using a TriCarb 2910 TR scintillation counter (PerkinElmer). Inhibition of the radioactivity by test articles were calculated using the equation below: % Inhibition=(1−(Assay well−Average_LC)/(Average_HC−Average_LC))×100%.
Chain of Human recombinant PARP2 (Q9UGN5 whole entry): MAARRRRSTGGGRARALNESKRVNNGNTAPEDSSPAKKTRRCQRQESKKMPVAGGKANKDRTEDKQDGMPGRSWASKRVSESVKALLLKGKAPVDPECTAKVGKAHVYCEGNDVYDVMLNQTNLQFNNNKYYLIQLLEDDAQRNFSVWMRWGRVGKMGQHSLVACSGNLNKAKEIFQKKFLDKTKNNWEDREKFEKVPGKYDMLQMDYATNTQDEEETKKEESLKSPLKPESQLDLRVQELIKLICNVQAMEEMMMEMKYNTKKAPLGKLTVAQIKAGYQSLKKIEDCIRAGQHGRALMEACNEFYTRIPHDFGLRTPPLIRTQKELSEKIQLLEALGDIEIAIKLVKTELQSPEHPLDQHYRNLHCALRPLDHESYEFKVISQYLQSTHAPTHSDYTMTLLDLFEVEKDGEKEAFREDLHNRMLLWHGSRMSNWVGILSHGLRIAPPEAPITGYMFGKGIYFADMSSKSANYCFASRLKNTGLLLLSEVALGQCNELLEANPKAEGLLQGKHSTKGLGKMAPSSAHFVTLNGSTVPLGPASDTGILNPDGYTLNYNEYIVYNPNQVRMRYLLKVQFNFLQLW

For assay [2], the target named is T1, AR in LNCaP cytosol (Homo sapiens, UniProt P10275, T878A).
T1 construct: endogenous in cells; host or cells: LNCaP cytosol
T1 sequence (P10275 1-920 T878A): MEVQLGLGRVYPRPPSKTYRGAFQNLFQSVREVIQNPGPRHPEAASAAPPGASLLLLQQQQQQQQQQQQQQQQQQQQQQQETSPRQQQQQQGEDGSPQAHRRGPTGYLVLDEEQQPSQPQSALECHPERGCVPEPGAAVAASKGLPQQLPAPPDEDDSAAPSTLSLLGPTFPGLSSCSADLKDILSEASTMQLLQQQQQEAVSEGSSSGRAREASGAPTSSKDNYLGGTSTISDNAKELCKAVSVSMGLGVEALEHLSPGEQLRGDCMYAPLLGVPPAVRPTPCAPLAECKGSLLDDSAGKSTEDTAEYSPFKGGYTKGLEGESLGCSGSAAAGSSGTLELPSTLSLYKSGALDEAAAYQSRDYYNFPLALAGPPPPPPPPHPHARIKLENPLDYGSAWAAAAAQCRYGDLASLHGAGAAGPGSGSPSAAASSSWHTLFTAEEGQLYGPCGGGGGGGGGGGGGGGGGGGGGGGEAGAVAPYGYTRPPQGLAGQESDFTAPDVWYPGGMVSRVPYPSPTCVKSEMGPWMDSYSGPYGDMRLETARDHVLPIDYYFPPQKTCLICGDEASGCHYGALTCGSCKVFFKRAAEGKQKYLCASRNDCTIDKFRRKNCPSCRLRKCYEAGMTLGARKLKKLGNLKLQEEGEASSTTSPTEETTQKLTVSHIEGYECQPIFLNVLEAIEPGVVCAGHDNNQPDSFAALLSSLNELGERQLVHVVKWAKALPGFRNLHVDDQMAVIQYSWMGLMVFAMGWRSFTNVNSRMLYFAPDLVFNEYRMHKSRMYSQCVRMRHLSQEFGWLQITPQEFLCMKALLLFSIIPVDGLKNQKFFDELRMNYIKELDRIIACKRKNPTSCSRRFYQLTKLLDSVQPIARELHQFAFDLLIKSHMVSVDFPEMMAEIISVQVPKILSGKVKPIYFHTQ
Briefly: AR binding assay (3H-methyltrienolone displacement). The procedure: as §1
IC50 values were calculated and graphed using the model “log(inhibitor) vs. response—Variable slope” included in GraphPad Prism 5 (San Diego, CA). The Ki values were further calculated using the equation below where [L] was the radioligand concentration (1 nM) using in this study. Kd value was 0.332 nM. Ki=IC50/(1+[L]/Kd) c. AR transactivation: Human AR cloned into a CMV vector backbone was used for the transactivation study. HEK-293 cells were plated at 80,000 cells per well of a 24 well plate in DME+5% csFBS. Twenty four hours later, the cells were transfected using Lipofectamine (Invitrogen, Carlsbad, CA) with 0.25 μg GRE-LUC, 0.01 μg CMV-LUC (renilla luciferase) and 25 ng of the AR in OPTIMEM medium. The cells were treated 24 hrs after transfection with various ligands (10^−12 to 10^−5 M final concentrations) and luciferase assay were performed 48 hours after transfection. […]

Setting [3] is: 2.5 nM enzyme, histone H3, 10 μM 32P-NAD+, read-out: PARP2 IC50.
Where [4] appears, read: Ki=IC50/(1+[L]/Kd), [L] 1 nM, Kd 0.332 nM, read-out: AR Ki.

Molecules are shown by their SMILES. Like-named read-outs stand apart in the source and are kept apart here.

Usually IC50 stands for the point on the concentration scale where inhibition reaches its midpoint. Broadly, the Ki is a measure of affinity in units of concentration, obtained from inhibition or displacement. Turning to `CC1(C)C(=O)N(c2ccc(C#N)c(C(F)(F)F)c2)C(=S)N1c1ccc(C(=O)NCCCCCCNCc2ccc(-c3[nH]c4cc(F)cc5c4c3CCNC5=O)cc2)c(F)c1` [Compound 1.5, 4-(3-(4-cyano-3-(trifluoromethyl)phenyl)-5,5-dimethyl-4-oxo-2-thioxoimidazolidin-1-yl)-2-fluoro-N-(6-((4-(8-fluoro-1-oxo-2,3,4,6-tetrahydro-1H-azepino[5,4,3-cd]indol-5-yl)benzyl)amino)hexyl)benzamide], in assay [1], the IC50 was 2 nM. For the same molecule, the Ki in assay [2] worked out at 291 nM.

Consider `C[C@]12CCC(O)C[C@@H]1CC[C@@H]1[C@@H]2CC[C@]2(C)[C@@H](OCCCCCC(=O)N3CCN(C(=O)c4cc(Cc5n[nH]c(=O)c6ccccc56)ccc4F)CC3)CC[C@@H]12` (stereo partly drawn) [Compound 1.111, 4-(4-fluoro-3-(4-(6-((5S,8R,9S,10S,13S,14S,17S)-3-hydroxy-10,13-dimethylhexadecahydro-1H-cyclopenta[a]phenanthren-17-yloxy)hexanoyl)piperazine-1-carbonyl)benzyl)phthalazin-1(2H)-one], for which the IC50 in assay [1] (setting [3]) is 0.2 nM. In addition, affinity in assay [2] was put at a Ki of 36 nM.

As to `C[C@]12CCC(=O)C[C@@H]1CC[C@@H]1[C@@H]2CC[C@]2(C)[C@@H](OCC(=O)N3CCN(C(=O)c4cc(Cc5n[nH]c(=O)c6ccccc56)ccc4F)CC3)CC[C@@H]12` [Compound 1.110, 4-(3-(4-(2-((5S,8R,9S,10S,13S,14S,17S)-10,13-dimethyl-3-oxohexadecahydro-1H-cyclopenta[a]phenanthren-17-yloxy)acetyl)piperazine-1-carbonyl)-4-fluorobenzyl)phthalazin-1(2H)-one], the IC50 in assay [1] (setting [3]) worked out at 0.2 nM. This molecule also yielded a Ki in assay [2] of 60 nM.

Turning to `C[C@](O)(COc1ccc(NCCCCCC(=O)N2CCN(C(=O)c3cc(Cc4n[nH]c(=O)c5ccccc45)ccc3F)CC2)cc1)C(=O)Nc1ccc(C#N)c(C(F)(F)F)c1` [Compound 1.83, (S)-N-(4-cyano-3-(trifluoromethyl)phenyl)-3-(4-(6-(4-(2-fluoro-5-((4-oxo-3,4-dihydrophthalazin-1-yl)methyl)benzoyl)piperazin-1-yl)-6-oxohexylamino)phenoxy)-2-hydroxy-2-methylpropanamide], the 50% inhibitory concentration (IC50) in assay [1] (setting [3]) turned out to be 0.3 nM. In assay [2], this molecule returned a Ki of 139 nM.

Regarding `C[C@]12CCC(=O)C[C@@H]1CC[C@@H]1[C@@H]2CC[C@@]2(C)[C@H]1CC[C@@]2(O)C#CC(=O)N1CCN(C(=O)c2cc(Cc3n[nH]c(=O)c4ccccc34)ccc2F)CC1` [Compound 1.116, 4-(4-fluoro-3-(4-(3-((5S,8R,9S,10S,13S,14S,17S)-17-hydroxy-10,13-dimethyl-3-oxohexadecahydro-1H-cyclopenta[a]phenanthren-17-yl)propioloyl)piperazine-1-carbonyl)benzyl)phthalazin-1(2H)-one], the IC50 in assay [1] (setting [3]) amounted to 0.2 nM. The inhibition constant (Ki) in assay [2] (setting [4]) came out at 4970 nM.

In the case of `CC(O)(CS(=O)(=O)c1ccc(NCCn2cc(CN3CCN(C(=O)c4cc(Cc5n[nH]c(=O)c6ccccc56)ccc4F)CC3)nn2)cc1)C(=O)Nc1ccc(C#N)c(C(F)(F)F)c1` (stereo in doubt) [Compound 1.97, (S)-N-(4-cyano-3-(trifluoromethyl)phenyl)-3-(4-(2-(4-((4-(2-fluoro-5-((4-oxo-3,4-dihydrophthalazin-1-yl)methyl)benzoyl)piperazin-1-yl)methyl)-1H-1,2,3-triazol-1-yl)ethylamino)phenylsulfonyl)-2-hydroxy-2-methylpropanamide], in assay [1], the IC50 is 0.4 nM. In assay [2], affinity was put at a Ki of 504 nM.

Take `C[C@]12CCC(=O)C[C@@H]1CC[C@@H]1[C@@H]2CC[C@@]2(C)[C@H]1CC[C@@]2(O)C#CCN1CCN(C(=O)c2cc(Cc3n[nH]c(=O)c4ccccc34)ccc2F)CC1` [Compound 1.118, 4-(4-fluoro-3-(4-(3-((5S,8R,9S,10S,13S,14S,17S)-17-hydroxy-10,13-dimethyl-3-oxohexadecahydro-1H-cyclopenta[a]phenanthren-17-yl)prop-2-ynyl)piperazine-1-carbonyl)benzyl)phthalazin-1(2H)-one]: in assay [1] (setting [3]), the IC50 was found to be 1 nM. Further, in assay [2] (setting [4]), the Ki is over 7470 nM.

On to `C[C@]12CCC(=O)C[C@@H]1CC[C@@H]1[C@@H]2CC[C@]2(C)[C@@H](OCCOCC(=O)N3CCN(C(=O)c4cc(Cc5n[nH]c(=O)c6ccccc56)ccc4F)CC3)CC[C@@H]12` [Compound 1.104, 4-(3-(4-(2-(2-((5S,8R,9S,10S,13S,14S,17S)-10,13-dimethyl-3-oxohexadeca hydro-1H-cyclopenta[a]phenanthren-17-yloxy)ethoxy)acetyl)piperazine-1-carbonyl)-4-fluorobenzyl)phthalazin-1(2H)-one], for which the IC50 in assay [1] (setting [3]) turned out to be 0.3 nM. The Ki in assay [2] (setting [4]) was found to be 167 nM.

Turning to `C[C@]12CCC(=O)C[C@@H]1CC[C@@H]1[C@@H]2CC[C@@]2(C)[C@H]1CC[C@@]2(O)c1cn(CC(=O)N2CCN(C(=O)c3cc(Cc4n[nH]c(=O)c5ccccc45)ccc3F)CC2)nn1` [Compound 1.107, 4-(4-fluoro-3-(4-(2-(4-((5S,8R,9S,10S,13S,14S,17S)-17-hydroxy-10,13-dimethyl-3-oxohexadecahydro-1H-cyclopenta[a]phenanthren-17-yl)-1H-1,2,3-triazol-1-yl)acetyl)piperazine-1-carbonyl)benzyl)phthalazin-1(2H)-one], the IC50 in assay [1] (setting [3]) came out at 0.1 nM. The inhibitory constant (Ki) in assay [2] (setting [4]) is over 7470 nM.
